Measured values reported in patent US4000281A, “Pyrazole derivatives” (priority 1971, dated 1976).
Like-named read-outs stand apart in the source and are kept apart here.

Columns and labels:
Type in all cases: in vivo, mice
[1] = tested on: Influenza viruses; experiment: Mouse-Survival Test (Test No. 1), Influenza virus strain not given; settings: unidentified influenza virus, 360 h; for response vs control in vivo at 500 mg/kg / response vs control in vivo at 5 mg/kg / response vs control in vivo at 50 mg/kg: read-out: Survival Index (S.I.); for responders at 500 mg/kg / responders at 5 mg/kg / responders at 50 mg/kg: read-out: Survival Percent
[2] = tested on: Influenza virus Jap 305; settings: 1 dose, 30 minutes before infection, 15 multiples of LD50
[3] = tested on: Influenza virus Jap 305; experiment: Mouse-Survival Test (Test No. 1), Influenza Jap 305; settings: for S.I.: significant if >1.24
[4] = Jap 305, 50 mg/kg PO, virus dose 15 multiples of LD50
[5] = Jap 305, 500 mg/kg IP, virus dose 22 multiples of LD50
[6] = Jap 305, 500 mg/kg PO, virus dose 15 multiples of LD50

With `Cc1[nH]nc(-c2ccncc2)c1-c1ccccc1O` [Compound B, 3-(4-pyridyl)-4-(2-hydroxyphenyl)-5-methylpyrazole] as the molecule, how does the response vs control in vivo at 500 mg/kg ([1]; ip) read?
The response vs control in vivo at 500 mg/kg was 129%.

And the responders at 500 mg/kg ([1]; ip)?
The responders at 500 mg/kg was 0%.

`CCCc1[nH]nc(-c2ccncc2)c1-c1ccccc1O` [Compound C, 3-(4-pyridyl)-4-(2-hydroxyphenyl)-5-n-propyl-pyrazole] was tested. Which response vs control in vivo at 500 mg/kg ([1]; ip) did it give?
The response vs control in vivo at 500 mg/kg was 184%.

And the responders at 500 mg/kg ([1]; ip)?
The responders at 500 mg/kg was 50%.

Which results are given for `CC(C)c1[nH]nc(-c2ccncc2)c1-c1ccccc1O` [Compound D, 3-(4-pyridyl)-4-(2-hydroxyphenyl)-5-isopropylpyrazole]?
MDD (Mean Day of Death) ([2]; intranasal 2.5% suspension): 10.50 days; S.I. ([2]; intranasal 2.5% suspension): 1.49; Survival Percent ([2]; intranasal 2.5% suspension): 40%; MDD (Mean Day of Death) ([2]; intranasal 5% suspension): 9.76 days; S.I. ([2]; intranasal 5% suspension): 1.38; Survival Percent ([2]; intranasal 5% suspension): 30%; MDD (Mean Day of Death) ([2]; intranasal 10% suspension): 13.00 days; S.I. ([2]; intranasal 10% suspension): 1.84; Survival Percent ([2]; intranasal 10% suspension): 60%; response vs control in vivo at 5 mg/kg ([1]; ip): 136%; response vs control in vivo at 50 mg/kg ([1]; ip): 131%; response vs control in vivo at 500 mg/kg ([1]; ip): 269%; responders at 5 mg/kg ([1]; ip): 0%; responders at 50 mg/kg ([1]; ip): 0%; responders at 500 mg/kg ([1]; ip): 100%; response vs control in vivo at 50 mg/kg ([1]; po): 167%; response vs control in vivo at 500 mg/kg ([1]; po): 214%; responders at 50 mg/kg ([1]; po): 40%; responders at 500 mg/kg ([1]; po): 60%; Survival Percent [3, 4]: 30%; S.I. [3, 4]: 1.31; Survival Percent [3, 5]: 70%; S.I. [3, 5]: 2.16; Survival Percent [3, 6]: 100%; S.I. [3, 6]: 2.12

For `CCCCc1[nH]nc(-c2ccncc2)c1-c1ccccc1O` [Compound E, 3-(4-pyridyl)-4-(2-hydroxyphenyl)-5-n-butylpyrazole], which response vs control in vivo at 50 mg/kg ([1]; ip) is on record?
Its response vs control in vivo at 50 mg/kg is 130%.

What about the response vs control in vivo at 500 mg/kg ([1]; ip) of the same molecule?
Its response vs control in vivo at 500 mg/kg is 162%.

What about the responders at 50 mg/kg ([1]; ip) of the same molecule?
The responders at 50 mg/kg was 10%.

And the responders at 500 mg/kg ([1]; ip)?
Its responders at 500 mg/kg is 10%.

With `COc1ccc(O)c(-c2c(-c3ccncc3)n[nH]c2C)c1` [Compound F, 3-(4-pyridyl)-4-(2-hydroxy-5-methoxy-phenyl)-5-methylpyrazole] as the molecule, how does the response vs control in vivo at 500 mg/kg ([1]; ip) read?
Its response vs control in vivo at 500 mg/kg is 129%.

What about the responders at 500 mg/kg ([1]; ip) of the same molecule?
The responders at 500 mg/kg was 0%.

How did the response vs control in vivo at 50 mg/kg ([1]; ip) turn out when `CCc1nn(C)c(-c2ccncc2)c1-c1ccccc1O` [Compound G, 2-methyl-3-(4-pyridyl)-4-(2-hydroxyphenyl)-5-ethyl-pyrazole] was run?
Its response vs control in vivo at 50 mg/kg is 130%.

What about the response vs control in vivo at 500 mg/kg ([1]; ip) of the same molecule?
Its response vs control in vivo at 500 mg/kg is 217%.

And the responders at 50 mg/kg ([1]; ip)?
The responders at 50 mg/kg was 0%.

And the responders at 500 mg/kg ([1]; ip)?
Its responders at 500 mg/kg is 60%.

Which results are given for `CCc1nn(C(C)C)c(-c2ccncc2)c1-c1ccccc1O` [Compound H, 2-isopropyl-3-(4-pyridyl)-4-(2-hydroxyphenyl)-5-ethylpyrazole]?
response vs control in vivo at 50 mg/kg ([1]; ip): 135%; response vs control in vivo at 500 mg/kg ([1]; ip): 191%; responders at 50 mg/kg ([1]; ip): 0%; responders at 500 mg/kg ([1]; ip): 30%

What does the source list for `CCCCn1nc(CC)c(-c2ccccc2O)c1-c1ccncc1` [Compound I, 2-n-butyl-3-(4-pyridyl)-4-(2-hydroxyphenyl)-5-ethylpyrazole]?
response vs control in vivo at 5 mg/kg ([1]; ip): 132%; response vs control in vivo at 50 mg/kg ([1]; ip): 148%; response vs control in vivo at 500 mg/kg ([1]; ip): 191%; responders at 5 mg/kg ([1]; ip): 0%; responders at 50 mg/kg ([1]; ip): 0%; responders at 500 mg/kg ([1]; ip): 14%
